How the values were obtained:
[1] = test system: IL-18; assay: Plasma IL-18 level in restraint stress mice (ELISA); assay type: in vivo, mouse; conditions: given i.p. during restraint (Ac-YVAD-CHO 200 μM/50 μl, Z-FA-fmk 100 μM/50 μl, SB-203580 100 μg, SOD-1 20 U, DPI 30 μg)
Protocol: (§1) For restraint stress, each mouse was kept in a restrainer (a round plastic tube 27 mm in diameter) for 1, 3 or 6 hours, and IL-18 levels were measured. Regarding the analysis of IL-6, each mouse was restrained as described above, and then housed in the starting cage for 6 hours, after which a measurement was performed.
(§2) After restraint, each mouse was anesthetized with diethyl ether, and blood was drawn into an EDTA-containing tube. Plasma was separated by centrifugation at 4° C. and 10000×g for 10 minutes, and stored at −80° C. IL-18 and IL-6 were analyzed by ELISA using Quantikine™ immunoassay kit (R&D Systems) and OptEIA™ (BD-Pharmingen), respectively.
(§3) The anti-ACTH antiserum (50 μl, 1:1), dexamethasone (1 ng/50 μl PBS(−)) or the anti-IL-18 antibody (50 μl, 1:1) was administered intraperitoneally to each mouse; after 10 minutes elapsed, the animal was kept in a restraint tube for 6 hours. Synthetic ACTH (250 μg/50 μl PBS(−)) was injected to the left leg; after 6 hours elapsed, the mice were subjected to the experiment.
(§4) Each mouse was kept in a restrainer for 1 hour, and Ac-YVAD-CHO (200 μM/50 μl PBS(−)), Z-FA-fmk (100 μM/50 μl PBS(−)) and SB-203580 (100 μg/50 μl PBS(−) per mouse) were administered intraperitoneally. 1 and 3 hours after the start of restraint, SOD-1 (20 U) and DPI (30 μg) were administered intraperitoneally to the mouse, and samples were analyzed by Western blotting.

[2] = test system: IL-18 precursor; assay: IL-18 (precursor) level in the adrenal of restraint stress mice; assay type: in vivo, mouse; conditions: given i.p. during restraint
Protocol: as §1, §3, §4
Western blot analysis of IL-18 and phosphorylated P38MAP kinase in adrenal tissue was performed as described below. […] Procaspase-11 and activated P38 MAP kinase were quantified using a Science Lab 99 image analysis system (manufactured by Fujifilm).

[3] = target: T1, caspase-1 (Mus musculus, UniProt P29452); assay: Caspase-1 activity in the adrenal of restraint stress mice (Ac-YVAD-MCA fluorescent substrate); assay type: in vivo; conditions: given i.p. during restraint
T1 construct: from tissue; host or cells: mouse adrenal (homogenate)
T1 sequence (P29452 119-296 limits assumed): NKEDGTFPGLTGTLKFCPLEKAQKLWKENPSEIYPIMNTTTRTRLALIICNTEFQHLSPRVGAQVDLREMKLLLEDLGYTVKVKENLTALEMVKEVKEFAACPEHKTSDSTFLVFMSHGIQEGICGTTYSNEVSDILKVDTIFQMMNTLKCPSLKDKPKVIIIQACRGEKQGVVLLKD
T1 sequence (P29452 315-402 limits assumed): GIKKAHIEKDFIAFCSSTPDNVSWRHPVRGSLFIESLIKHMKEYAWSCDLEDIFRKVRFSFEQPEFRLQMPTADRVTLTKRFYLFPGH
Protocol: as §4
Caspase-1 activity in the adrenal was measured using a caspase assay kit (manufactured by BD-Pharmingen). Describing briefly, a homogenate of adrenal tissue was incubated with Ac-YVAD-MCA (acetyl-L-tyrosyl-L-valyl-L-alanyl-L-aspartic acid 4-methyl-coumaryl-7-amide), which is a fluorescent substrate for caspase-1, and the MCA leaving from the aforementioned substrate was measured using a fluorescence plate reader (excitation wavelength 380 nm, irradiation wavelength 420-460 nm).

[4] = test system: phosphorylated (Thr180/Tyr182) P38 MAP kinase; assay: Phosphorylated P38MAP kinase in the adrenal of restraint stress mice (Western blotting); assay type: in vivo, mouse; conditions: SOD-1 20 U i.p. 1 and 3 hours after start of restraint, FIG. 4A
Protocol: as §4
Western blot analysis of IL-18 and phosphorylated P38MAP kinase in adrenal tissue was performed as described below. The adrenal tissue was homogenized in an immunoprecipitation (IP) buffer solution (50 mM Tris pH 7.4, 150 mM NaCl, 0.5% NP-40 and 0.5% sodium deoxycholate) containing a protease inhibitor mixture (manufactured by Roche Diagnostics) using a Polytron homogenizer. The homogenate obtained (100 μg protein) was pre-clarified using protein A/G agarose (Exalpha Biologicals, Inc.), incubated with the anti-mouse IL-18 monoclonal antibody or the anti-phosphorylated (Thr180/Tyr182) P38 MAP kinase antibody and protein A/G agarose (50 μl), and centrifuged (at 13000×g for 25 minutes, 4° C.). The precipitate was boiled, and the adrenal protein was recovered, electrophoresed in 10-20% SDS-polyacrylamide gradient gel, and electrically transferred to a Hybond ECL (manufactured by Amersham) nitrocellulose membrane. The aforementioned membrane was incubated with an antibody (IL-18, phosphorylated (Thr180/Tyr182) P38 MAP kinase, caspase-1 or caspase-11), and the reacted protein was detected using an ECL plus system (manufactured by Amersham biosciences). Procaspase-11 and activated P38 MAP kinase were quantified using a Science Lab 99 image analysis system (manufactured by Fujifilm).

[5] = test system: IL-6; assay: Plasma IL-6 level in stress-loaded wild type mice (ELISA); assay type: in vivo, mouse; conditions: stress-loaded WT mice; FIG. 5B
Protocol: as §1, §2
Using IL-18-deficient mice, the relationship between IL-6, which is another stress-related cytokine, and IL-18, was examined. Without stress, IL-6 was undetectable in WT and IL-18 KO, but after 3 hours of stress loading, the IL-6 level was 230 pg/ml in WT and 25 pg/ml in IL-18 KO (FIG. 5A). After liberation from the stress, plasma IL-6 was kept at about 80 pg/ml in WT, but decreased to 5 pg/ml in IL-18 KO (FIG. 5A). Treatment with YVAD-CHO, SOD and anti-IL-18 antibody 70% inhibited the stress-induced increase in plasma IL-6 level in WT (FIG. 5B).

[6] = test system: Primary culture human skin keratinocytes; assay: IL-18 release from keratinocytes with paraquat stimulation; assay type: cell-based; conditions: keratinocytes, 1 μM paraquat 15 minutes; SOD 1-20 U/ml or water-soluble vitamin E 100 nM-10 mM/ml
Protocol: Primary culture human skin keratinocytes (keratinocytes) were cultured in a basal medium for keratinocytes contained in petri dishes for cell culture 6 cm in diameter at 1.0-2.0×10^6/dish. This was cultured in the aforementioned medium containing 1 μM of paraquat, which is an active oxygen generator, for 15 minutes, after which the medium was exchanged with a paraquat-free medium, and the cells were further cultured for 1 hour, after which the medium was collected, and the concentration of IL-18 protein in the medium was measured.

[7] = test system: Brain astrocytes; assay: IL-18 release from astrocytes with paraquat stimulation; assay type: cell-based, mouse; conditions: astrocytes, 100 nM paraquat 1 hour; SOD 1-20 U/ml or water-soluble vitamin E 100 nM-10 mM/ml
Protocol: Brain astrocytes isolated from the mouse neonatal brain by the method of Yang et al. (Yang P, Hernandez M R. Brain Res Brain Res Protoc. 2003 October; 12(2):67-76) were prepared at 1.5-2.0×10^6/ml. This was cultured in Dulbecco's minimum essential medium containing 100 nM of paraquat, which is an active oxygen generator, for 1 hour, after which the medium was exchanged with a paraquat-free medium. The cells were further cultured for 3 hours, after which the medium was collected, and the concentration of IL-18 protein in the medium was measured.

SOD: superoxide dismutase (SOD)-1 purchased from Sigma; active oxygen eliminator
stress-induced increase in plasma IL-18 level [1]: reduced | IL-18 precursor protein level in the adrenal [2]: did not reduce | stress-induced increase in caspase-1 activity in the adrenal [3]: reduced | inhibition of the phosphorylation of P38MAP kinase in the adrenal [4]: about 70% | inhibition of the stress-induced increase in plasma IL-6 level [5]: 70% | activation and release of IL-18 into the medium [6]: suppressed | activation and release of IL-18 into the medium [7]: suppressed

From patent publication US20090004683A1, “Indicator Agent for Noninflammatory Stress Response and Use Thereof” (priority 2004, published 2009)
